Biological target: T1, LRPPRC (Leucine-rich pentatricopeptide repeat-containing protein) (Homo sapiens, UniProt P42704)
T1 construct: GST fusion)
Experiment: Intrinsic fluorescence quenching titration of purified LRPPRCΔ[…]; confirmed by BLI (KD […]) and CETSA in A549 and H1299 cells
Assay type: binding

T1 sequence (P42704 1121-1394): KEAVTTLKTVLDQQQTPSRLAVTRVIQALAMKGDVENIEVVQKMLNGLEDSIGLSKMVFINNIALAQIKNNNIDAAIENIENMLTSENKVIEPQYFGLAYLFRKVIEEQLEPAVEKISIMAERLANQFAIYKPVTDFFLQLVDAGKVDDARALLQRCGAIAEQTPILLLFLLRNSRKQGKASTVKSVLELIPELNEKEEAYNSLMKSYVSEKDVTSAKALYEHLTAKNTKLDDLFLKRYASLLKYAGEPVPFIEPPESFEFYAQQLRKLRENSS

SMILES: C[C@@]1(C(=O)O)CC[C@]2(C)CC[C@]3(C)C4=CC(=O)c5c(cc(O)c(O)c5C=O)[C@]4(C)CC[C@@]3(C)[C@@H]2C1 [T-96, Demethylzeylasteral]
- Kd: 21.4 µM
